Reference: patent US20210187014A1 (The Regents of the University of Colorado, a body corporate, priority 2018, published 2021)

How the values were obtained:
whole worm lysates = assay: Affinity chromatography with immobilized Ent and mass spectrometry to identify Ent-binding proteins; set-up: species or system C. elegans; conditions: two independent experiments
Method: CTL-2 is a homolog of catalases that are known to bind iron. ATP-1 is the a-subunit of the mitochondrial ATP synthase that is not known for a role in iron biology (Junge and Nelson, 2015).
Isolation of Enterobactin-binding proteins by biotin-IP and LC-MS. Total proteins were extracted from mixed stage worms and then pre-cleaned three times by adding 100 ul Dynabeads® M-280 Streptavidin. Equal volumes of these total protein extracts were then separated to two tubes. Biotin-Ent (5 ug) was added into one tube for IP and Biotin alone (5 ug) was added to another tube as the control, both were incubated overnight at 4° C. After incubating with Dynabeads® M-280 Streptavidin for 2 hours, the beads were washed at least 3 times by 1mL PBS. PBS was then removed from the beads and 200 uL 0.1 M ammonium bicarbonate (ABC)/0.001% deoxycholic acid (DCA) was added. The samples were reduced using 5 mM (final) TCEP at 60° C. for 30 min and alkylated using 15 mM iodoacetamide at room temperature for 20 min. 0.5 ug of trypsin was added to each sample and incubated overnight. The samples were then acidified using 7 uL of formic acid. DCA was removed from the samples by phasetransfer using ethyl acetate. The samples were desalted using a Pierce C18 spin column, and dried using a speed vac. […]

ATP-1 = molecular target: T1, ATP-1 (Caenorhabditis elegans, UniProt Q9XXK1); assay: Biotin-Ent binding to ATP-1 (in vivo pulldown and in vitro binding assay); set-up: species or system C. elegans; conditions: excess non-biotin labeled Ent
T1 construct: His; made in house; host or cells: E. coli (given only for the three ATP-1 segments)
T1 sequence (Q9XXK1 whole entry): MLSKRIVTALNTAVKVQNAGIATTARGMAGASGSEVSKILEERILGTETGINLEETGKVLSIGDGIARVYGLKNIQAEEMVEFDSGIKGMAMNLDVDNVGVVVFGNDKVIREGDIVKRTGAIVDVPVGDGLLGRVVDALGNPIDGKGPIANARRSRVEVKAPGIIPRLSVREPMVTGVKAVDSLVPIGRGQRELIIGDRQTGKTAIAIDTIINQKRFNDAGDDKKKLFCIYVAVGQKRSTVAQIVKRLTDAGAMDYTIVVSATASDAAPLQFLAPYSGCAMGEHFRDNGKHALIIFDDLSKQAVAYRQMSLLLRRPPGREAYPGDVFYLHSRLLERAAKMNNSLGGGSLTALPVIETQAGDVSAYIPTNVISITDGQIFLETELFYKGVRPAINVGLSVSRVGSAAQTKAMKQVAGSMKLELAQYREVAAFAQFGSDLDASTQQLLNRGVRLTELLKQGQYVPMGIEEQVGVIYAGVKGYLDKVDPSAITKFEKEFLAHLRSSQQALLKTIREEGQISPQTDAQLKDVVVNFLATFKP
Method: First, in an in vivo assay, worms were fed bacteria +/− Biotin-Ent and total protein extracts were isolated, followed by streptavidin-bead purification and SDS-PAGE. […] Just as the iron-free Biotin-Ent, iron-bound Biotin-Ent also bound the ATP-1 protein (FIG. 10B, C).
In vivo binding assay: Worms were allowed to grow with Ent-biotin (5 ug/ml) dietary supplementation, followed by streptavidin-bead IP. Western blot was performed to detect ATP-1, using an antibody against the mammalian ATP synthase a-subunit (Thermo Fisher 43-9800).
(§1) In vitro binding assay. (a) Ent-biotin pull-down of total proteins: Ent-biotin and streptavidin beads were used to pull down interacting proteins from worm total protein extracts (same method as that in initial screen for Ent-binding proteins). Western blots were performed to detect ATP-1 (Thermo Fisher 43-9800). […] The assay was then quenched with a standard 5×SDS-PAGE_loading buffer (reducing). Proteins were separated by SDS-PAGE and transferred to_nitrocellulose membranes. The membranes were blocked for 1 h with 5% BSA in Trisbuffered saline (TBS) with 0.1% Tween 20 (TBST) at room temperature, followed by incubation for 1 h with horseradish peroxidase streptavidin (Cell Signaling_Technology,3999S) in TBST. […] After IP, the amount of 55Fe was determined by liquid scintillation.

ATP5A1 = molecular target: T2, ATP5A1 (Homo sapiens, UniProt P25705); assay: Biotin-Ent binding to ATP5A1 (pulldown from HEK293T cells and in vitro binding assay); conditions: excess, free Ent
T2 construct: His
T2 sequence (P25705 44-553): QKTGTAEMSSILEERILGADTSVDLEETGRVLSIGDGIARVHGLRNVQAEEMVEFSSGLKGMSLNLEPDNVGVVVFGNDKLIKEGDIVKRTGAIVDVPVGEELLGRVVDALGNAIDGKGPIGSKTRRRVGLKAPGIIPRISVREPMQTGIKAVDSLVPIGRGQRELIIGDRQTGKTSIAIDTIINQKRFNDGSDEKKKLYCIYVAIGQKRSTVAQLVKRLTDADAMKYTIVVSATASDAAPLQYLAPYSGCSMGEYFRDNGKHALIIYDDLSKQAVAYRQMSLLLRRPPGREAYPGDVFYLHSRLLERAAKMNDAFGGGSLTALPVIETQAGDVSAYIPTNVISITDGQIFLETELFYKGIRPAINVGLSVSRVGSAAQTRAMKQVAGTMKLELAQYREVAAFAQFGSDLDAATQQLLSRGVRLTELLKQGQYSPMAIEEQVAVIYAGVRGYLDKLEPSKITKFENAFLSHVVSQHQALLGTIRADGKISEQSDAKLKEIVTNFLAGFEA
Source text: Sequence alignment indicates 78% identity between the ATP synthase a-subunits from C. elegans (ATP-1, Wormbase; SEQ ID NO. 7) and humans (ATP5A1, NCBI; SEQ ID NO. 8) (FIG. 11D). […] To test if this Ent-ATP-1 function is conserved in mammals, the present inventors repeated the prior described biotin-Ent pulldown assay (FIG. 3A) using total protein extracts from human HEK293T cells cultured +/− Biotin-Ent.
as §1, with “TBST. After four washes with changes every 15 min in TBST, the_biotinylated proteins were visualized by enhanced chemiluminescence (GE Healthcare,_RPN2232).” for “TBST.”

HEK293T cells [1] = assay: In vivo mitochondrial iron uptake assay in HEK293T cells; format: cell-based, human
HEK293T cells [2] = assay: Mitochondrial iron level by fluorescent indicator RPA; format: cell-based, human
Source text: Moreover, using siRNA knockdown (FIG. 13A), the present inventors observed that this Ent-mediated increase depended on ATP5A1 (FIG. 6E, F) in a similar manner as that in the assays for C. elegans (FIG. 5A, D). The present inventors also measured the mitochondrial iron level in cells by using the fluorescent mitochondrial iron indicator, RPA, to which iron binding quenches its fluorescence. […] The relatively smaller changes seen for cultured cells, compared to the difference in worms fed heat-killed food (FIG. 2), may potentially be due to the higher base iron level under the cell culturing condition.
Mitochondrial iron measurement in mammalian cells. The mitochondrial iron pools were determined as described (Mena et al., 2015). Briefly, cells were loaded for 20 min at 37 ° C. with 2 uM of the mitochondrial iron chelator rhodamine B-[(1,10-phenanthrolin-5-yl) aminocarbonyl]benzyl ester (RPA). After washing, the cells were imaged by fluorescence microscopy.

[3] = system: anemic mouse model (dietary anemia); assay: Anemic mouse model (dietary anemia), Ent in drinking water; format: in vivo; conditions: male mice on iron-deficient diet, two weeks
Method: The inventors fed 3-week old male mice an iron-deficient diet (IDD) (or control diet) for 5 weeks to induce anemia. They were then fed IDD +/− Ent added to the drinking water for two more weeks. Fresh dilutions of Ent in water were provided once per week. As generally shown in FIG. 21, mice continuously fed the iron-adequate control diet (CD) were included as the control. Hemoglobin level was measured by a Hemavet Blood Analyzer. Mean value±SD is shown.

germ-free (GF) mice = assay: Growth of germ-free mice colonized with entF- E. coli, Ent in drinking water; format: in vivo; conditions: GF female mice colonized with entF- E. coli, drinking water pH 5.5
Method: As generally shown in FIG. 23, (A) Five-week old female germ-free (GF) mice were colonized with a single non-pathogenic E. coli (K12) strain, wild type or entF-(Ent-deficient E. coli). Mouse growth (weight gain) was measured for the following 4 weeks. […] Iron level was measured.

[4] = system: C. elegans smf-3/DMT1 mutant; assay: Growth of iron-deficient C. elegans smf-3/DMT1(-) mutant with iron chelator 2,2'-bipyridyl; format: in vivo
Method: FIG. 26. […] All tests were done on a smf-3/DMT1(-) mutant strain in a culture media where an iron chelator (2,2′-bipyridyl) was added to reduce the environmental iron level (FIG. 26A). […] This growth delay was rescued by supplementation with Ent, scored as the percentage of the population at the indicated growth stage. […] The entP,fepA: E. coli mutant cannot synthesize or utilize Enterobactin.
SMF-3/DMT1 is a conserved divalent metal transporter that transports iron into intestinal cells. The smf-3/DMT1 mutant has been established as an iron deficiency model in C. elegans. These mutants have defective iron uptake that results in iron deficiency (Romney et al 2011) and delayed growth under iron-poor growth conditions created by addition of an iron chelator (2,2′-bipyridyl) to the culture media (Raj an et al 2019).
To determine if the Enterobactin supplementation was benefiting the worm directly or benefiting the worm through an E. coli-dependent mechanism, the test was repeated using an E. coli double mutant that cannot synthesize or utilize Ent (entP,fepk).

With `O=C(N[C@H]1COC(=O)[C@@H](NC(=O)c2cccc(O)c2O)COC(=O)[C@@H](NC(=O)c2cccc(O)c2O)COC1=O)c1cccc(O)c1O` [Ent, enterobactin] the “candidate Ent-binding proteins captured” value (whole worm lysates) was “CTL-2 and ATP-1”, the “competition of Biotin-Ent binding to ATP-1-His” value (ATP-1) was “outcompeted” and the “competition of biotin-Ent binding to ATP5A1” value (ATP5A1) was “effectively competed away”. For the same compound, the “iron level in mitochondria” value (HEK293T cells [1]) was “prominently increased”, the “mitochondrial iron level (RPA)” value (HEK293T cells [2]) was “increased the mitochondrial iron level” and the “iron-boosting effect of Ent (RPA)” value (HEK293T cells [2]; cells treated with ATP5A1 siRNA) was “not seen”. The hemoglobin level [3] was “significantly improved”, the “growth (weight gain)” value (germ-free (GF) mice) was “overcomes growth delay” and the “growth of smf-3(-) mutants” value ([4]; E. coli double mutant that cannot synthesize or utilize Ent) was “rescued the growth of smf-3(-) mutants to adulthood”. The “growth of smf-3(-) mutants” value ([4]; iron chelator 2,2'-bipyridyl in media) was “rescued the growth of smf-3(-) mutants to adulthood”.
